Patent EP0211584A1, “Antihypertensive agents” (AMERICAN HOME PRODUCTS CORPORATION, priority 1985, dated 1987)

Legend:
[1] = system: arterial actin-myosin interactions; experiment: Inhibition of superprecipitation (antagonism of actin-myosin interaction), Silver et al.; assay type: biochemical; settings: six minute time-point
Experimental: . The data reported herein was obtained at a six minute time-point rather than the 1.5, 5 and 12 minute time points indicated in the superprecipita- tion assay of the Silver et al paper.
(§1) The following examples illustrate the preparation of a representative number of compounds of this invention. After each example, the Ca+2 antagonist activity of the compound is presented in terms of percent relaxation of aortic tissue (P.R.) at 10-^5M concentration. […] Inhibition of super- precipitation (Antag. of Actin-Myosin interaction) is expressed as percent inhibition (mean ± standard error of the mean for at least 3 separate experiments) at a compound concentration. In the same manner, inhibition of myosin light chain phosphorylation (Antag. of MLCP) is expressed as a percent inhibition at a compound concentration. Similarly, the antihypertensive activity is reported in terms of millimetres mercury (mmHg) systolic blood pressure (B.P.) reduction at the stated time post 50 mg/kg oral dosing or other dosing as indicated.

[2] = system: rabbit aortic smooth muscle; experiment: Ca+2 antagonism: relaxation of KCl-depolarized rabbit aortic smooth muscle strips; settings: Oryctolagus cuniculus, 20 min, compound 1 x 10^-5M; 100mM KCl contraction; 20 minutes after addition; mean of two experiments; read-out: P.R. (percent relaxation of aortic tissue)
Experimental: The composition of PSS was as follows (mM): NaCl 112,KCI 5, NaHCO3 25 KH2PO4 1, MgSO4 1.2, CaCl2 2.5, dextrose 10. The lower end of each tissue strip was attached to a fixed post and the upper end to a Statham UC-4 transducer. Changes in force development were recorded on a Beckman Dynograph Polygraphic Recorder.
Following equilibration, the muscles were contracted in a depolarizing solution of PSS in which 100mM KCI was substituted for an equimolar concentration of NaCI. Following attainment of steady- state isometric force (20 min.), the test compound was added to afford a final concentration of 1 x 10^-5M. The inhibitory effect, expressed as percent relaxation, was determined from the mean of two experiments twenty minutes after the addition of the compound being tested.
as §1

[3] = system: spontaneously hypertensive rats; experiment: Hypotensive effect: systolic blood pressure of spontaneously hypertensive rats; assay type: in vivo; settings: mmHg per method
Experimental: The hypotensive in vivo effect of the compounds of this invention was determined by measuring changes in the systolic blood pressure of spontaneously hypertensive rats with a Decker Caudal Plethysmograph. The compound being tested was administered to a group of 4 rats and their systolic pressure was determined prior to and at 1.5 and 4 hours after compound administration. Initial testing was done by oral administration of the compound. Results (mmHg) are expressed as decreases in systolic blood pressure.
as §1

[4] = target: Ca^+2-calmodulin dependent myosin light chain phosphorylation (Bos taurus, UniProt Q28824); experiment: Inhibition of myosin light chain phosphorylation (MLCP), Silver et al.; assay type: biochemical; settings: read-out: Antag. of MLCP (percent inhibition of myosin light chain phosphorylation)
Experimental: The data reported herein was obtained at a six minute time-point rather than the 1.5, 5 and 12 minute time points indicated in the superprecipita- tion assay of the Silver et al paper.
as §1

[5] = system: isolated paced intact rabbit atria; experiment: Cardiac depressant (negative inotropic) effect in isolated paced rabbit atria; settings: Oryctolagus cuniculus; rabbit atria paced at 3Hz, 30°C, cumulative dosing; read-out: IC25 (concentration which produces 25% inhibition of isometric force)
Experimental: The potential for detrimental cardiac depressant (negative inotropic) effects of the compounds of this invention was assessed in isolated paced intact rabbit atria. […] Muscles (N=5-9/compound) were stimulated at a frequency of 3Hz with a WPI stimulator for a 60 minute equilibration period. Changes in isometric force were recorded as described for the aortic smooth muscle experiments, supra. […]

[6] = dose 25mg/kg oral, at 1.5 hours
[7] = dose 50mg/kg oral, at 1.5 hours
[8] = dose 10mg/kg oral, at 1.5 hours

inhibition at 100 µM [4] [%] | inhibition at 25 µM [4] [%] | inhibition at 50 µM [4] [%] | inhibition at 10 µM ([4]; 10µM) [%] | Structure (SMILES) | Antag. of Actin-Myosin (percent inhibition of superprecipitation) ([1]; 100µM) [%] | inhibition at 10 µM [2] [%] | B.P. (systolic blood pressure reduction) [3, 6] [mm] | B.P. (systolic blood pressure reduction) ([3]; dose 25mg/kg oral, at 4 hours) [mm] | IC25 [5] [nM] | Antag. of Actin-Myosin (percent inhibition of superprecipitation) ([1]; 25µM) [%] | B.P. (systolic blood pressure reduction) [3, 7] [mm] | B.P. (systolic blood pressure reduction) ([3]; dose 50mg/kg oral, at 4 hours) [mm] | Antag. of Actin-Myosin (percent inhibition of superprecipitation) ([1]; 50µM) [%] | B.P. (systolic blood pressure reduction) [3, 8] [mm] | B.P. (systolic blood pressure reduction) ([3]; dose 10mg/kg oral, at 4 hours) [mm] | Antag. of Actin-Myosin (percent inhibition of superprecipitation) ([1]; 10µM) [%]
24 | – | – | – | COC(COC(=O)C1=C(C)NC2=C(C(=O)CNC2)C1c1ccccc1C(F)(F)F)c1ccccc1 (stereo not shown) [Example 12, 1,4,5,6,7,8-Hexahydro-2-methyl-5-oxo-4-[2-(trifluoromethyl)phenyl]-1,7-naphthyridine-3-carboxylic acid 2-methoxv-2-ohenvlethvl ester] | 30 | 39 | -56 | -56 | 2000 | – | – | – | – | – | – | –
76 | 59 | – | – | CC1=C(C(=O)OCC2COc3ccccc3O2)C(c2c(F)c(F)c(F)c(F)c2F)C2=C(CNCC2=O)N1 (stereo not shown) [Example 14, 1,4,5,6,7,8-Hexahydro-2-methyl-5-oxo-4-(pentafluorophenyl)-1,7-naphthyridine-3-carboxylic acid 2.3-dihvdro-1.4-benzodioxin-2-vimethvl ester] | 80 | 62 | – | – | 3200 | 65 | -46 | -42 | – | – | – | –
70 | 58 | – | – | CC1=C(C(=O)OC(C)COc2ccccc2)C(c2c(F)c(F)c(F)c(F)c2F)C2=C(CNCC2=O)N1 (stereo not shown) [Example 13, 1,4,5,6,7,8-Hexahydro-2-methyl-5-oxo-4-(pentafluorophenyl)-1,7-naphthylidine-3-carboxylic acid 1-methvl-2-ahenoxvethvl ester] | 78 | 46 | – | – | 10000 | 61 | -35 | -60 | – | – | – | –
75 ± 3 | 35 ± 5 | 62 ± 1 | – | COC(COC(=O)C1=C(C)NC2=C(C(=O)CNC2)C1c1cccc(Cl)c1C)c1ccccc1 (stereo not shown) [Example 10, 4-(3-chloro-2-methylphenyl)-1,4,5,6,7,8-hexahydro-2-methyl-5-oxo-1,7-naphthyridine-3-carboxylic acid 2-methoxy-2-phenylethyl ester] | 76±2 | 60 | – | – | > 10000 | 45±3 | – | – | 68±2 | -28 | -19 | –
70 | – | 56 | – | CO[C@@H](COC(=O)C1=C(C)NC2=C(C(=O)CNC2)C1c1c(F)c(F)c(F)c(F)c1F)c1ccccc1 (stereo partly drawn) [Example 6, 1,4,5,6,7,8,-Hexahydro-2-methyl-5-oxo-4-(pentafluorophenyl)-1,7-naphthyridine-3-carboxylic acid (R)-2-methoxy-2-phenylethyl ester] | 74 | 71 | – | – | 600 | – | – | – | 64 | -56 | -49 | –
– | – | – | – | CC1=C(C(=O)OCCOc2ccccc2)C(c2ccccc2C)C2=C(CNCC2=O)N1 (stereo not shown) [Example 15, 1,4,5,6,7,8-Hexahydro-2-methyl-4-(2-methylphenyl)-5-oxo-1,7-naphthyridine-3-carboxylic arid 2-phenoxyethyl ester] | 66±5 | 63 | -29 | -39 | 4700 | – | – | – | – | – | – | –
69 | – | – | – | CC1=C(C(=O)OCCOc2ccccc2)C(c2cccc(Cl)c2Cl)C2=C(CNCC2=O)N1 (stereo not shown) [Example 19, 4-(2,3-Dichlorophenyl)-1,4,5,6,7,8-hexahydro-2-methyl-5-oxo-1,7-naphthyridine-3-carboxylic acid 2-phenoxyethylester] | 71 | 62 | – | – | 2500 | – | -50 | -73 | – | – | – | –
69 ± 3 | 24 ± 3 | 54 ± 4 | – | CC1=C(C(=O)OCCOc2ccccc2)C(c2c(F)c(F)c(F)c(F)c2F)C2=C(CNCC2=O)N1 (racemic) [Example 2, 1,4,5,6,7,8-Hexahydro-2-methyl-5-oxo-4-(pentafluorophenyl)-1,7-naphthyridine-3-carboxylic acid 2-phenoxvethvl ester] | – | 71 | – | – | 1000 | 28± 2 | – | – | 58± 4 | -39 | – | –
77 | – | – | – | CC1=C(C(=O)OCCCCOc2ccccc2)C(c2c(F)c(F)c(F)c(F)c2F)C2=C(CNCC2=O)N1 (stereo not shown) [Example 21, 1,4,5,6,7,8-Hexahydro-2-methyl-5-oxo-4-(pentafluorophenyl)-1,7-naphthyridine-3-carboxylic acid 4-phenoxvbutvl ester] | 80 | 61 | – | -49 | 1000 | – | – | – | – | – | – | –
70 | – | 57 | – | CC1=C(C(=O)OCCOc2ccccc2)C(c2c(F)c(F)c(F)c(F)c2F)C2=C(CNCC2=O)N1 (single isomer, unassigned; (-)) [Example 3, (-)-1,4,5,6,7,8-Hexahydro-2-methyl-5-oxo-4-(pentafluorophenyl)-1,7-naphthridine-3-carboxylic acid 2-phenoxyethyl ester] | 76 | 56 | -6 | -14 | > 10000 | – | – | – | 65 | – | – | –
67 ± 2 | 39 ± 2 | 59 ± 3 | 11 | CC1=C(C(=O)OCCOc2ccccc2)C(c2cccc(Cl)c2C)C2=C(CNCC2=O)N1 (stereo not shown) [Example 17, 4-(3-Chloro-2-methylphenyl)-1,4,5,6,7,8-hexahydro-2-methyl-5-oxo-1,7-naphthyridine-3-carboxylic acid 2-phenoxyethyl ester] | 71±2 | 74 | -10 | -45 | 1000 | 44±2 | – | – | 64±3 | – | – | 22
77 ± 3 | 35 | 64 | – | CC1=C(C(=O)OCCc2ccccc2)C(c2c(F)c(F)c(F)c(F)c2F)C2=C(CNCC2=O)N1 (stereo not shown) [Example 18, 1,4,5,6,7,8-Hexahydro-2-methyl-5-oxo-4-(pentafluorophenyl)-1,7-naphthyridine-3-carboxylic acid 2-phenylethyl ester] | 78±2 | 48 | – | – | 1000 | 42 | – | – | 65 | -27 | -24 | –
